Measurements from paper PMC10180113, “Thermodynamic and Kinetic Stabilities of Al(III) Complexes with N2O3 Pentadentate Ligands” (Molecules, 2023).
Where two headings read alike, the source gives them in different places. Marks after values point to notes of the source that are not given here. Blank lines part the entries; values can stand above or below the compound they belong to.

Columns and labels:
[1] = cited from earlier work
[2] = 0.1 M KNO3, 25 °C, cited from earlier work; for logKAlL: stability constant of Al(III) complex
[3] = Stability and protonation constants of the Al(III) complexes (pH-potentiometry, 27Al NMR); type: physicochemical; settings: 0.15 M NaNO3, 25 °C; for logβAlLH−1: cumulative stability constant of AlLH−1; for logKAlLH−1: protonation constant of AlLH−1 species, pH-potentiometry; for logKAlL: stability constant of Al(III) complex, 27Al NMR spectroscopy
Experimental: The stability and protonation constants of the Al(III) complexes of AMPTA, AMPDA-HB, and CD3A-Bn, defined by Equations (2)–(4), were investigated by pH-potentiometry and by multinuclear NMR spectroscopy at 25 °C in 0.15 M NaNO3 solution. (2) KAlL=AlL/Al^3+L (3) KAlLH−1=AlL/AlLH−1H^+ (4) Al^3++L+OH^− ⇌AlLH−1 βAlLH−1=AlLH−1/Al^3+LOH^−
In order to avoid the hydrolysis of the Al(III) ion, the pH-potentiometric titration of the pre-prepared complexes of AMPTA, AMPDA-HB, and CD3A-Bn ligands was performed at pH > 4.0.
To determine the stability constant of the Al(III) complexes, the ^1H and ^27Al NMR spectra of the Al^3+-AMPTA, Al^3+-AMPDA-HB, and Al^3+-CD3A-Bn systems were recorded in the pH range 8.0–12. ^1H and ^27Al NMR spectra of the three systems are shown in Figures S1–S6.
The analysis of the ^27Al NMR data was used for the calculation of the stability constants of the [Al(AMPTA)], [Al(AMPDA-HB)], and [Al(CD3A-Bn)] complexes. Integrals of the ^27Al NMR signal ([Al(OH)4]^− at 81 ppm, ν½ = 11 Hz; see Figures S2, S4 and S6) were used for the calculation of the logKAlL value of the three Al complexes by taking into account the protonation constant of the AlLH−1 species (Equation (3), Table 1) and the known hydrolysis constants of the free Al^3+ ion (logK[Al(OH)]^2+ = −4.60, logK[Al(OH)2]^+ = −9.09, logK[Al(OH)3] = −14.94 and logK[Al(OH)4]^− = −23.08, logK[Al2(OH)2]^4+ = −8.0, logK[Al3(OH)4]^5+ = −13.47, logK[Al13(OH)32]^7+ = −104.81). […] The equilibrium data obtained by pH-potentiometry and multinuclear NMR spectroscopy were used to calculate the species distribution diagram for the Al(III)-AMPTA, Al(III)AMPDA-HB, and Al(III)-CD3A-Bn systems (Figure 1, Figure 2 and Figure 3). The amount of [Al(OH)4]^− species determined by ^27Al NMR studies (Figures S2, S4 and S6) is also shown in Figure 2, Figure 3 and Figure 4.
(§1) The protonation constants of the AMPTA, AMPDA-HB, and CD3A-Bn and those of the Al(III) complexes were determined by pH-potentiometric titration. The metal-to-ligand concentration ratio was 1:1 (the concentration of the ligand was generally 0.002 M). For the pH measurements and titrations, a Metrohm 888 Titrando automatic titration workstation with a Metrohm-6.0234.110 combined electrode was used. Equilibrium measurements were carried out at a constant ionic strength (0.15 M NaNO3) in 6 mL samples at 25 °C under magnetic stirring and N2 bubbling. The titrations were made in the pH range 1.7–12.0. KH-phthalate (pH = 4.005) and borax (pH = 9.177) buffers were used to calibrate the pH meter. For the calculation of [H^+] from the measured pH values, the method proposed by Irving et al. was used. A 0.01 M HNO3 solution was titrated with the standardized NaOH solution in the presence of 0.15 M NaNO3 ionic strength.

[4] = Protonation constants of the ligands (pH-potentiometry, spectrophotometry); type: physicochemical; settings: 0.15 M NaNO3, 25 °C; for logK3^H / logK4^H / logK1^H / logK2^H: pH-potentiometry; for ΣlogK1–4^H: total basicity
Experimental: Since the thermodynamic properties of any metal complex proposed for in vivo applications must be characterized by high thermodynamic stability, the equilibrium properties of AMPTA, AMPDA-HB, and CD3A-Bn ligands and their Al(III) complexes were investigated in detail. First, the protonation constants of the ligands, defined by Equation (1), were determined by pH-potentiometry and the logKi^H values are listed in Table 1. (1) KiH=HiL/Hi−1LH^+
as §1, with “strength. The differences (A) between the measured (pHread) and calculated pH (−log[H^+]) values were used to obtain the equilibrium H^+ concentration from the pH values measured in the titration experiments (A = −0.035). The waiting time between two pH measurements was 60 s. For the equilibrium calculations, the stoichiometric water ionic product (pKw) was also needed to calculate [OH^−] values under basic conditions. The VNaOH-pHread data pairs of the HNO3NaOH titration obtained in the pH range 10.5–12.0 were used to calculate the pKw value (pKw = 13.78). The protonation and stability constants were calculated with the PSEQUAD program.” for “strength.”

[5] = as above; type: physicochemical; settings: 0.15 M NaNO3, 25 °C
[6] = design: method as in PMID 31830368; settings: up to 4 h in PBS, serum, and EDTA solutions; cited from earlier work
[7] = design: method as in PMID 31830368; settings: cited from earlier work
[8] = design: method as in doi:10.1007/s11144-015-0892-6; settings: 1.0 M NaCl, cited from earlier work
[9] = design: method as in doi:10.1021/ac60305a041, doi:10.1021/ja00792a018; settings: 0.5 M Me4NCl, 25 °C; cited from earlier work

Structure (SMILES): O=C(O)CN(CC(=O)O)[C@@H]1CCCC[C@H]1N(CC(=O)O)CC(=O)O (relative stereo) [CDTA, trans-1,2-diaminocyclohexane-N,N,N′,N′-tetraacetic acid]
logK1^H ([1]; 0.15 M NaNO3, 25 °C): 9.54 | logK2^H ([1]; 0.15 M NaNO3, 25 °C): 6.08 | logK3^H ([1]; 0.15 M NaNO3, 25 °C): 3.65 | logK4^H ([1]; 0.15 M NaNO3, 25 °C): 2.69 | logK5^H ([1]; 0.15 M NaNO3, 25 °C): 1.14 | ΣlogK1–4^H ([1]; 0.15 M NaNO3, 25 °C): 21.96 | logKAlLH−1 [2]: 7.70 ^e | logβAlLH−1 [2]: 11.2 ^e | logKAlL [2]: 18.9 ^e

logβAlLH−1 [3]: 11.7 (1) | logKAlLH−1 [3]: 6.94 (6) | logKAlL [3]: 18.6 (1) ^d | logK3^H [4]: 4.94 (5) | logK4^H [4]: 2.01 (5) | ΣlogK1–4^H [4]: 28.87 | logK1^H [5]: 12.0 (1) ^b | logK2^H [5]: 9.92 (5) ^b
Structure (SMILES): O=C(O)CN(Cc1ccccc1O)CC1CCCCN1CC(=O)O (stereo not shown) [AMPDA-HB]
logK1^H ([1]; 0.15 M NaCl, 25 °C): 12.4 | logK2^H ([1]; 0.15 M NaCl, 25 °C): 10.14 | logK3^H ([1]; 0.15 M NaCl, 25 °C): 4.76 | logK4^H ([1]; 0.15 M NaCl, 25 °C): 1.91 | ΣlogK1–4^H ([1]; 0.15 M NaCl, 25 °C): 29.21 | stability in vitro of the [Al18F]-labelled complex [6]: high stability | excretion of the [Al18F]-labelled complex in vivo [7]: rapid hepatobiliary and renal excretion | accumulation in the bones of the [Al18F]-labelled complex ([7]; in vivo): low accumulation in the bones

logβAlLH−1 [3]: 9.8 (1) | logKAlLH−1 [3]: 5.06 (6) | logKAlL [3]: 14.9 (1) ^d | logK1^H [4]: 11.49 (1) | logK2^H [4]: 5.56 (4) | logK3^H [4]: 2.75 (5) | logK4^H [4]: 1.73 (5) | ΣlogK1–4^H [4]: 21.53
Structure (SMILES): O=C(O)CN(CC(=O)O)CC1CCCCN1CC(=O)O (stereo not shown) [AMPTA]
logK1^H ([1]; 0.15 M NaCl, 25 °C): 11.67 | logK2^H ([1]; 0.15 M NaCl, 25 °C): 5.47 | logK3^H ([1]; 0.15 M NaCl, 25 °C): 2.74 | logK4^H ([1]; 0.15 M NaCl, 25 °C): 1.62 | ΣlogK1–4^H ([1]; 0.15 M NaCl, 25 °C): 21.50

logβAlLH−1 [3]: 9.3 (1) | logKAlLH−1 [3]: 5.20 (4) | logKAlL [3]: 14.5 (1) ^d | logK1^H [4]: 10.72 (2) | logK2^H [4]: 5.22 (3) | logK3^H [4]: 3.34 (3) | logK4^H [4]: 0.59 (9) | ΣlogK1–4^H [4]: 19.87
Structure (SMILES): O=C(O)CN(CC(=O)O)[C@@H]1CCCC[C@H]1N(CC(=O)O)Cc1ccccc1 [CD3A-Bn, trans-1,2-diaminocyclohexane-N-benzyl-N,N′,N′-triacetic acid]

Structure (SMILES): O=C(O)CN(CCN(CC(=O)O)CC(=O)O)CC(=O)O [EDTA]
logK1^H ([1]; 0.15 M NaNO3, 25 °C): 9.40 | logK2^H ([1]; 0.15 M NaNO3, 25 °C): 6.10 | logK3^H ([1]; 0.15 M NaNO3, 25 °C): 2.72 | logK4^H ([1]; 0.15 M NaNO3, 25 °C): 2.08 | logK5^H ([1]; 0.15 M NaNO3, 25 °C): 1.23 | ΣlogK1–4^H ([1]; 0.15 M NaNO3, 25 °C): 20.30 | logKAlLH−1 [2]: 6.0 ^e | logβAlLH−1 [2]: 10.5 ^e | logKAlL [2]: 16.5 ^e

Structure (SMILES): O=C([O-])CN1CCN(CC(=O)[O-])CCN(CC(=O)[O-])CC1.[Al+3] [[Al(NOTA)]]
KAl(L)H−2 (KAl(NOTA)H−1 for [Al(NOTA)]) ([8]; 25 °C): 1.6 × 10^12 c M^−1 | k0 ([8]; 25 °C): 2e-06 s⁻¹ | k1 (kOH for [Al(NOTA)]) ([8]; 25 °C): 6.8 × 10^−6 b M^−1 s^−1 | logKAl(L)H−2 ([8]; 25 °C): 12.2 | kd (pH = 7.4) ([8]; pH 7.4, 25 °C): 2 × 10^−6 s^−1 | t1/2 (pH = 7.4), dissociation half-life (ln2/kd) ([8]; pH 7.4, 25 °C): 94 h

Structure (SMILES): O=C([O-])CN(CC(=O)O)C1CCCCC1N(CC(=O)O)CC(=O)O.[Na+] (stereo not shown) [[Na(CDTA)]^3−]
logKNaL [9]: 4.66

Structure (SMILES): O=C([O-])CN(CCN(CC(=O)O)CC(=O)O)CC(=O)O.[Na+] [[Na(EDTA)]^3−]
logKNaL [9]: 1.43

Structure (SMILES): Oc1ccccc1 [phenol]
logK^H ([1]; 0.1 M NaClO4): 10.0
